Results: article PMC7764243, “Alterins Produced by Oyster-Associated Pseudoalteromonas Are Antibacterial Cyclolipopeptides with LPS-Binding Activity” (Marine Drugs, 2020)
In brackets after ≈: the same amount, converted by molar mass. *1 amine or outer side, *2 acyl side, *3 side chain or, on linkers, in order; H or OH if unused. Where a SMILES comes first, the peptide text is derived from it. Bridges are numbered along the chain shown (N, C = ends). [ ]: non-standard residue; d: D form. The star is where a group is joined. ξ: configuration not given here. Dab(3ξ-OH) = O=C([C@@H](N[*:1])C(O)CN[*:3])[*:2]; X1 = C/C=C(/N[*:1])C(=O)[*:2]; Nonanoyl = CCCCCCCCC(=O)*; Octanoyl = CCCCCCCC(=O)*; Dab = NCC[C@H](N)C(=O)O; X2 = CCCC/C=C\CCCC(=O)*

Assays:
Y. ruckeri ATCC 29473 = assay type: cell-based, Yersinia ruckeri; details: ATCC 29473, 48 h
Procedure: (§1) Antibacterial activity was assayed against a panel of micro-organisms including human and aquaculture pathogenic bacterial species. MICs were performed and defined according to internationally recognized standards (CLSI [21]). Polymyxin B (PMB), an antibiotic CLP produced by Paenibacillus polymyxa, was used as positive control. The major produced alterins, i.e., alt_952, alt_954, alt_970 and alt_980 were assayed against the whole panel of target cells while the minor ones were only tested against a few bacterial strains (Table 2).
(§2) The bacterial strains Aeromonas caviae CIP 7616, Aeromonas hydrophila CIP 7614, Escherichia coli ML35, Escherichia coli SBS 363, Salmonella enterica CIP 8297 and Yersinia ruckeri ATCC 29473 were grown in Tryptic Soy Broth. The marine bacterial strains Vibrio crassostreaeJ2–9, Vibrio tasmaniensisLGP32, Vibrio tapetis CECT 4600 were grown in Marine Broth. All of them were cultivated at optimal temperature according to ATCC and CIP specifications. The strain Vibrio parahaemolyticus13-028A/3 was grown at 28 °C in Tryptic Soy Broth supplemented in NaCl (20 g.L^−1) according to [47]. The strains Pseudoalteromonas sp. hCg-6 and hCg-42 were cultured using a synthetic medium containing: 17.11 g sucrose, 30 g sea salts (Sigma-S9883), 7.6 g K2HPO4, 3 g KH2PO4 and 20 mL MEM 50X (Dulbecco) per liter. The cultures were grown at 18 °C for 72 h with shaking (100 rpm).
(§3) MICs were determined using broth microdilution method according to [21]. To resume, antibacterial compounds ranging from 0.1 to 100 µM were assayed against the target bacteria in mid-logarithmic phase culture (1.10^6 UFC.mL^−1) in adapted culture medium according to the strain. MICs were examined by unaided eye after a 48h-incubation time at the optimal temperature growth. The lipopeptide PMB (Sigma-P4932) was used as antibiotic control.

S. enterica CIP 8297 = assay type: cell-based, Salmonella enterica; details: broth microdilution, 0.1 to 100 µM, 1.10^6 UFC/mL, 48 h, read by unaided eye
Procedure: as §1, §2, §3

P. aeruginosa ATCC 27853 = assay type: cell-based, Pseudomonas aeruginosa; details: ATCC 27853, 48 h
Procedure: as §1, §3

E. coli SBS363 = assay type: cell-based, Escherichia coli; details: E. coli SBS363 (short-chain LPS); broth microdilution, 0.1 to 100 µM, 1.10^6 UFC/mL, 48 h, read by unaided eye
Procedure: as §1, §2, §3

E. coli ML35 = assay type: cell-based, Escherichia coli; details: ML35, 48 h
Procedure: as §1, §2, §3

A. hydrophila CIP 7614 = assay type: cell-based, Aeromonas hydrophila; details: CIP 7614, 48 h
Procedure: as §1, §2, §3

Pseudoalteromonas hCg-6 = assay type: cell-based, Pseudoalteromonas sp.; details: 48 h
Procedure: as §1, §2, §3

V. tasmaniensis LGP 32 = assay type: cell-based, Vibrio tasmaniensis; details: 48 h
Procedure: as §1, §2, §3

V. harveyi ORM4 = assay type: cell-based, Vibrio harveyi; details: ORM4, 48 h
Procedure: as §1, §3

V. tapetis CECT 4600T = assay type: cell-based, Vibrio tapetis; details: CECT 4600, 48 h
Procedure: as §1, §2, §3

Pseudoalteromonas hCg-42 = assay type: cell-based, Pseudoalteromonas sp.; details: 48 h
Procedure: as §1, §2, §3

V. tasmaniensis LGP32 = assay: Viability (cultivability, CFU count) in seawater; assay type: cell-based, Vibrio tasmaniensis
Procedure: As a first step, we have measured the antimicrobial activity of alt_952, alt_954, alt_970 and alt_980 against V. tasmaniensis LGP32 in seawater after a 4 hour-long incubation. […] The effects on membrane were also investigated under the same experimental conditions using live/dead bacterial viability kit for flow cytometry (Figure 6). A net cultivability loss of V. tasmaniensis (2-log reduction) was observed when incubated with alt_954 and alt_980 indicative of a bactericidal effect (Figure 7A). In these conditions, V. tasmaniensis was much less affected by alt_970 (1-log reduction) and not by alt_952 (Figure 7A).
[…] After a 4 h-long incubation, viable bacteria were counted. Diluted samples (50 µL) in sterile seawater were spread in duplicate on appropriate medium. Cultivable bacterial concentration (CFU mL^−1) was determined after overnight incubation at optimal growth temperature.

[1] = test system: Vibrio tasmaniensis LGP32; assay: Membrane potential, DiBAC4(3) flow cytometry; assay type: cell-based
Procedure: To assess alterin physiological impact on Gram-negative cells, flow cytometry analyses were implemented using Live/Dead cell viability assay and the membrane potential dye, DiBAC4(3) on V. tasmaniensis LGP32 treated as previously (i.e., […]).
The membrane potential of the target bacteria was analysed using the potential-sensitive probe Bis-1,3-Dibutylbarbituric AcideTrimethineOxonol, (DiBAC4(3), MolecularProbes). DiBAC4(3) was reconstituted in DMSO stock solution at 1mM and stocked at −20 °C until use. Samples (500 µL) were incubated with 1 µL of DiBAC4(3) stock solution for 10mn in the dark. Under the effect of depolarization cells accumulate DiBAC4(3), fluoresce bright green and can easily be detected by flow cytometry. After excitation at 488 nm cells with depolarized membrane become fluorescent and reemit at 516 nm recovery of the signal at FL1. Positive control of the initial sample is carried out with 20% alcohol.

Structure (SMILES) | MIC (Y. ruckeri ATCC 29473) | MIC (S. enterica CIP 8297) | MIC (P. aeruginosa ATCC 27853) | MIC (E. coli SBS363) | MIC (E. coli ML35) | MIC (A. hydrophila CIP 7614) | MIC (Pseudoalteromonas hCg-6) | MIC (V. tasmaniensis LGP 32) | MIC (V. harveyi ORM4) | MIC (V. tapetis CECT 4600T) | MIC (Pseudoalteromonas hCg-42) | cultivability loss of V. tasmaniensis (log reduction of CFU) (V. tasmaniensis LGP32; 20 µM, 4 h incubation in sterile seawater, inoculum 1.10^6 UFC/mL, plated in duplicate) | cultivability loss of V. tasmaniensis (V. tasmaniensis LGP32; 300 µM, 4 h in seawater (data not shown)) | cells with depolarized membrane ([1]; 20 µM, 4 h in sterile seawater) | cells depolarization ([1]; 300 µM, 4 h in seawater)
C/C=C1/NC(=O)[C@@H](NC(=O)CCCCCCC)C(O)CNC(=O)[C@H](C(O)CN)NC(=O)[C@H](C(O)CN)NC(=O)[C@H](CCCNC(=N)N)NC(=O)[C@H](CC(C)C)NC(=O)[C@H](CCN)NC1=O (stereo partly shown) [alt_926] (Octanoyl-[Dab(3ξ-OH)][X1][Dab]LR[Dab(3ξ-OH)][Dab(3ξ-OH)]; lactam 1-C) | 50 µM (≈ 46.4 µg/mL) | 12.5 µM (≈ 11.6 µg/mL) | >100 µM | 50 µM (≈ 46.4 µg/mL) | 100 µM (≈ 92.7 µg/mL) | >100 µM | >100 µM | 50 µM (≈ 46.4 µg/mL) | 50 µM (≈ 46.4 µg/mL) |  |  |  |  |  | 
C/C=C1/NC(=O)[C@@H](NC(=O)CCCCCCCC)C(O)CNC(=O)[C@H](C(O)CN)NC(=O)[C@H](C(O)CN)NC(=O)[C@H](CCCNC(=N)N)NC(=O)[C@H](CC(C)C)NC(=O)[C@H](CCN)NC1=O (stereo partly shown) [alt_940] (Nonanoyl-[Dab(3ξ-OH)][X1][Dab]LR[Dab(3ξ-OH)][Dab(3ξ-OH)]; lactam 1-C) | 6.25 µM (≈ 5.88 µg/mL) |  | 50 µM (≈ 47.1 µg/mL) | 25 µM (≈ 23.5 µg/mL) | 50 µM (≈ 47.1 µg/mL) | 25 µM (≈ 23.5 µg/mL) | >100 µM | 6.25 µM (≈ 5.88 µg/mL) | 6.25 µM (≈ 5.88 µg/mL) |  |  |  |  |  | 
C/C=C1/NC(=O)[C@@H](NC(=O)CCC/C=C\CCCC)C(O)CNC(=O)[C@H](C(O)CN)NC(=O)[C@H](C(O)CN)NC(=O)[C@H](CCCNC(=N)N)NC(=O)[C@H](CC(C)C)NC(=O)[C@H](CCN)NC1=O (stereo partly shown) [alt_952] (X2-[Dab(3ξ-OH)][X1][Dab]LR[Dab(3ξ-OH)][Dab(3ξ-OH)]; lactam 1-C) | 0.4 µM (≈ 0.381 µg/mL) | 6.25 µM (≈ 5.96 µg/mL) | 50 µM (≈ 47.7 µg/mL) | 0.8 µM (≈ 0.763 µg/mL) | 25 µM (≈ 23.8 µg/mL) |  | >100 µM | 50 µM (≈ 47.7 µg/mL) | 12.5 µM (≈ 11.9 µg/mL) | >100 µM | >100 µM | no antibacterial effect | identical to those observed using alt_954 and alt_980 at 20 µM | around 55% | 100%
